Assay results published in US20240148691A1, “Treatment of Hypertension-Related and Vascular Diseases” (The Medical College of Wisconsin, Inc., priority 2021, published 2024).
Entries after “also recorded” stand apart in the source; their conditions may differ.

Tests used:
[1] = tested on: KATP channels; experiment: Glibenclamide-induced arteriole constriction in diabetic rats; parameters: species or system rat
Text: The inventors hypothesized that SHetA2 acts by inhibiting p66Shc-induced activation of KATP channels in diabetic animals. Therefore, the inventors treated control and SHetA2 treated arterioles with increasing concentrations of glibenclamide, antidiabetic drug which binds and inhibits the ATP-sensitive potassium channel's KATP inhibitory subunit which causes increasing of intracellular Ca^2+ concentrations leading to arteriole constriction.

[2] = Blood pressure and body weight during long-term treatment of hypertensive rats; assay type: in vivo, rat
Method: To assess whether treatment with SHetA2 would reduce the systolic blood pressure in hypertensive rats, animals were treated for 18 weeks with either vehicle control or SHetA2.
(§1) SS rats were weaned at 3 weeks of age and transferred to 1% salt diet for additional 3 weeks before treatment. At 6 weeks of age, rats were either given vehicle control or SHetA2 at 60 mg/kg by oral gavage. Oral gavage was performed 3 times weekly every other day for a period of 18 weeks. […] Urine was collected from rats housed in metabolic cages for 1-2 hours, approximately 24 hours after last treatment after 6, 12 and 18 weeks of treatment. […] Vascular reactivity of renal afferent arterioles was measured using the juxtamedullary nephron technique approximately 24 hours after final treatment (18 weeks) (FIG. 7).

[3] = tested on: diabetic nephropathy; experiment: Urinary protein excretion in diabetic animals; assay type: in vivo, rat
Text: (§2) The inventors hypothesized that SHetA2 would be effective in preventing and treating diabetic nephropathy. Therefore, the inventors treated rats with diabetes induced by streptozotocin (STZ) with SHetA2. […] (FIGS. 20-21).

[4] = tested on: afferent arterioles; experiment: Renal microvascular responses in streptozotocin-induced diabetic rats; assay type: in vivo, rat; conditions: for renal microvascular responses: diabetic animals
Text: as §2

[5] = tested on: hypertension-induced nephropathy; experiment: Urinary protein excretion in salt-sensitive hypertensive rats; assay type: in vivo, rat
Method: as §1
Hypertension-induced nephropathy causes excessive protein excretion in the urine.

[6] = tested on: renal afferent preglomerular arterioles; experiment: Renal afferent preglomerular arteriole microvascular responses, SHetA2 added in vitro; parameters: species or system rat
Text: (§3) Microvascular responses of renal afferent preglomerular arterioles to perfused pressure. Juxtamedullary nephron vasculature was isolated, and an afferent arteriole was monitored continuously by videomicroscopy. SS/BN2 refers to BN chromosome replacement into SS background. Thus, SS/BN2 are not expected to be salt-sensitive and represent a control for the SS strain.
Microvascular reactivity of renal blood vessels is reduced in two major causes of end stage renal disease: hypertension-induced nephropathy (HN) and diabetic nephropathy. One of the highlights of vascular dysfunction in HN is the loss of autoregulation of blood resistance vessels. Using rat model of salt-sensitive (SS) HN we have previously shown that overexpression of adaptor protein p66Shc is implicated in the loss of microvascular reactivity during the progression of HN (FIGS. 3, 5). In HN p66Shc is over-expressed in vascular smooth muscle cells of the walls of renal resistance arteries, including afferent arteriole (FIG. 4). p66Shc knockout restores the ability of afferent arteriole to contract in response to increased perfusion pressure and ATP (FIG. 5) and mitigates glomerular damage in SS rats on 1% salt diet. In this study, we tested ability of a flexible heteroarotinoid called Sulfur Heteroarotinoid A2 (SHetA2, pronounced Ess-Het-Aye-Two), known to inhibit p66Shc action, to prevent development and restore renal microvascular responses in hypertensive rats when added after the development of hypertension-induced nephropathy. […] Remarkably, SHetA2 prevented loss of microvascular reactivity and restored renal microvascular responses in hypertensive rats, as detected by response of afferent arterioles either to increasing perfusion pressure or to ATP, known mediator of afferent arteriolar autoregulatory responses (FIG. 6).

[7] = tested on: renal afferent arterioles; experiment: Renal afferent arteriole microvascular responses (juxtamedullary nephron technique) after chronic treatment of hypertensive SS rats; assay type: in vivo, rat
Method: as §3
Vascular reactivity of renal afferent arterioles was measured using the juxtamedullary nephron technique approximately 24 hours after final treatment (18 weeks) (FIG. 9). Remarkably, SHetA2 restored renal microvascular responses in hypertensive rats, as detected by response of afferent arterioles either to increasing perfusion pressure or to ATP, known mediator of afferent arteriolar autoregulatory responses (FIG. 8).
as §1

[8] = cited from earlier work

COc1ccc(Cl)cc1C(=O)NCCc1ccc(S(=O)(=O)NC(=O)NC2CCCCC2)cc1 [glibenclamide]
arteriole constriction ([1]; control arterioles, increasing glibenclamide concentrations): caused constriction
signs of diabetic nephropathy ([1]; diabetic p66ShcKO rats): not diabetic p66ShcKO rats
signs of diabetic nephropathy ([1]; diabetic rats): effective in attenuating
glibenclamide effect / arteriole constriction ([1]; diabetic rats / arterioles treated with SHetA2, increasing glibenclamide concentrations): not in SHetA2 treated arterioles; also recorded: lack of glibenclamide effect

CC1(C)CC(C)(C)c2cc(NC(=S)Nc3ccc([N+](=O)[O-])cc3)ccc2S1 [SHetA2, Sulfur Heteroarotinoid A2]
progression of hypertension / increase of blood pressure ([2]; 1% salt diet, long-term treatment): did not prevent; also recorded: lack of effect
systolic blood pressure ([2]; hypertensive rats, 18 weeks treatment vs vehicle): did not significantly reduce
body weight ([2]; long-term treatment): lack of effect
urinary protein excretion [3]: reduces or prevents
development of microvascular damage ([4]; STZ diabetic rats): successfully prevented
renal microvascular responses ([4]; acute treatment): increased
renal microvascular responses ([4]; chronic treatment, oral gavage every other day): increased
signs of diabetic nephropathy (dilation of afferent arterioles) ([4]; p66ShcKO rats treated with STZ): absence of effect
signs of diabetic nephropathy (dilation of afferent arterioles) ([4]; rats treated with streptozotocin (STZ)): reduces or prevents
urinary protein excretion ([5]; S36A salt-sensitive animals): reduces or prevents
urinary protein excretion ([5]; wild type SS hypertensive rats, SHetA2 60 mg/kg oral gavage, vs control-treated rats, 60 mg/kg): statistically significant decrease; also recorded: significantly reduces
urinary protein excretion ([5]; wild type SS hypertensive rats, SHetA2 60 mg/kg oral gavage, vs control-treated rats, listed as SHet2A): reduces or prevents
vessel diameter in response to SHetA2 treatment ([6]; dose dependence (FIG. 14)): dose-dependent decrease
renal microvascular responses in renal afferent preglomerular arterioles ([6]; in vitro, hypertensive rats (FIG. 6)): partially restored
renal microvascular response ([6]; salt-sensitive rats with hypertension, dose dependence (FIG. 14)): dose-dependent increase
renal microvascular responses of afferent arterioles to increasing perfusion pressure or ATP ([7]; hypertensive SS rats, 1% salt diet, SHetA2 60 mg/kg oral gavage 3 times weekly, 18 weeks, about 24 hours after final treatment, 60 mg/kg): restored
renal damage ([7]; hypertensive rats): mitigates
vessel diameter after chronic administration of SHetA2 ([7]; male and female rats (FIG. 17)): decrease
effect on heart function ([8]; animal models, after months of treatment): does not have any detectable effect
teratogenicity (birth defects) ([8]; animal models): does not cause
toxicity ([8]; oral, doses 25-fold above the doses used in the rat hypertensive model): no toxicity
